Results reported in US7771753B2, “Topical formulations comprising ceramic hydroxyapatite particles” (Laboratory Skin Care, Inc., priority 1995, dated 2010).

Test system: microorganisms (bacteria, fungi, pseudomonas aeruginosa, pseudomonas capacia, staphylococcus aureus, escherichia coli, candida albicans, aspergillus niger …)
Test: Antimicrobial effectiveness of the agent used in the formulation
Conditions: salmonella typhimurium
From the text: A preferred chemical antimicrobial agent for use under the invention is Triclosan. This agent used in the formulation has been found effective against the whole genera of microorganisms, (for example: bacteria, fungi, pseudomonas aeruginosa, pseudomonas capacia, staphylococcus aureus, escherichia coli, candida albicans, aspergillus niger, salmonella typhimurium, etc . . . ). […] The antimicrobial chemical agent is normally present in an amount of from 0.001-5% by weight, preferably from 0.05-2% by weight, and more preferably from 0.1-1% by weight.

## Oc1cc(Cl)ccc1Oc1ccc(Cl)cc1Cl [Triclosan]
  effectiveness against microorganisms: effective
